Laboratory results reported in patent publication US7238718B2, “Method for treating myolytic disease and method for screening antimyolytic agent” (Osaka Bioscience Institute, priority 2003, dated 2007).

Columns and labels:
[1] = test system: myolysis induced by bupivacaine hydrochloride in gastrocnemius; test: Myolysis model induced by bupivacaine hydrochloride, Evans' Blue fluorescence microscopy of gastrocnemius; assay type: in vivo, C57BL/6 mice; conditions: 10 mg/kg orally; 24 h after bupivacaine hydrochloride 0.5 w/v %, 0.1 ml; FIG. 1
Experimental: Effect of an H-PGDS inhibitor to myolysis was tested using a myolysis model induced by bupivacaine hydrochloride which is an experimental model for muscular dystrophy (Nonaka I, et al., Acta Neuropathol., 60:167–174, 1983). Bupivacaine hydrochloride (0.5 w/v %, 0.1 ml) was injected into gastrocnemius of C57BL/6 mice (K. K. Oriental Bio Service) (eight weeks old; male) to induce myolysis and, after 24 hours, Evans' Blue dye solution (1.0 w/v %) was intravenously injected from tail vein. After 30 minutes, they were killed by excessive anesthetization and perfused with physiological saline solution, gastrocnemius was excised and quickly frozen. The cryosection was prepared and then accumulated Evans' Blue was observed under a fluorescent microscope. Necrotic legion was enhanced by means of fluorescence.

[2] = test system: myolysis induced by bupivacaine hydrochloride in gastrocnemius; test: Quantification of myolysis region by Evans' Blue extraction and absorbance (630 nm); assay type: in vivo, C57BL/6 mice
Experimental: Quantification of the degenerated region by necrosis shown in Example 1 was carried out. Evans' Blue was extracted from the freeze-dried gastrocnemius by formamide. After the extraction, absorbance of Evans' Blue (630 nm) was measured calorimetrically.

[3] = test system: myolysis induced by bupivacaine hydrochloride in gastrocnemius; test: Nonoperative observation of necrotic lesion using X-ray CT with iopamidol; assay type: in vivo, mice; conditions: one day after bupivacaine hydrochloride; 15 min after iopamidol i.v.; FIG. 3
Experimental: Degenerated region was observed by a nonoperative manner using X-ray CT for experimental animals. N,N′-Bis[2-hydroxy-1-(hydroxymethyl)ethyl]-5-[(2S)-2-hydroxypropanoylamino]-2,4,6-triiodoisophthalamide (iopamidol), an X-ray contrast agent for urinary blood vessels, was intravenously injected from tail vein of mice after one day from the treatment with bupivacaine hydrochloride and a laminogram by an X-ray CT after 15 minutes is shown. A region with specific CT values which is noted in the laminogram of gastrocnemius decreased by administration of HQL-79. In the region where retention of the contrast agent is recognized, bleeding and edema as a result of muscular destruction are noted (refer to FIG. 3).

myolysis in mdx mice = test: Therapeutic effect in mdx mice (Duchenne's muscular dystrophy model), Evans' Blue retention; assay type: in vivo; conditions: continuously administered for two weeks; compared with vehicle group; FIG. 5
Experimental: HQL-79 was continuously administered for two weeks to mdx mice which is a model animal for Duchenne's muscular dystrophy (Bogdanovich S, et al., Nature, Nov. 28, 2002, 420(6914):418–21) […] and the effect of the HPGDS inhibitor to myolysis was tested. After two weeks from the initiation of the administration, an Evans' Blue dye solution (1.0 w/v %) was intravenously injected from tail vein. After one hour therefrom, the mice were killed by excessive anaesthetization and perfused with physiological saline solution, the gastrocnemius was excised and quickly frozen. The retention of Evans' Blue in the muscle was observed under a fluorescent microscope. Necrotic lesion was enhanced by means of fluorescence. In the mice to which HQL-79 was administered, retention of the dye (grayish white region) which is an index for myolysis decreased as compared with the group to which a vehicle was administered (refer to FIG. 5).

Row | SMILES | degenerated region by necrosis (Evans' Blue fluorescence) [1] | incorporation of Evans' Blue into gastrocnemius (absorbance 630 nm) ([2]; HQL-79 group of Example 1, formamide extraction, FIG. 2) | region with specific CT values in laminogram of gastrocnemius [3] | retention of Evans' Blue dye in muscle (index for myolysis) (myolysis in mdx mice) | amount of Evans' Blue impregnated into the tissue (absorbance 630 nm) ([2]; 30 mg/kg orally, 1 h before and 18 h after bupivacaine hydrochloride 1 w/v %, 0.05 mL, read at 24 h, FIG. 6)
1 | c1ccc(C(OC2CCN(CCCc3nnn[nH]3)CC2)c2ccccc2)cc1 [HQL-79, 4-benzhydryloxy-1-{3-(1H-tetrazol-5-yl)-propyl}piperidine] | degenerated region by necrosis became small | significantly decreased | decreased | decreased | 
2 | O=C(O)CCn1c2c(c3ccccc31)C[C@H](NS(=O)(=O)c1ccc(F)cc1)CC2 [ramatroban, (+)-(3R)-3-(4-fluorobenzenesulfonamide)-1,2,3,4-tetrahydrocarbazole-9-propionic acid] |  |  |  |  | lowered
